According to US20240025893A1, “PYRIMIDINE-AND NITROGEN-CONTAINING BICYCLIC COMPOUND” (Asahi Kasei Pharma Corporation, priority 2020, published 2024):

Key:
human IRAK-4 = human IRAK-4 (Homo sapiens (Human), UniProt Q9NWZ3); experiment: Measurement of human IRAK-4 inhibitory activity (TR-FRET, peptide substrate phosphorylation, 10 μM ATP); format: biochemical; details: 1 nM IRAK-4, 10 μM ATP, 23° C., 30 minutes; average values
In short: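 With 1 nM IRAK-4, 0.5 μM biotinylated peptide and 10 μM ATP, compound incubated 30 min at 23 °C in 50 mM HEPES pH 7.2 with Mg2+/Mn2+. Stopped with EDTA plus europium-cryptate anti-phosphopeptide antibody and streptavidin-XL665, 60 min at 23 °C. Activity taken as the 665/620 nm TR-FRET ratio.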

[1] = tested on: LPS-stimulated TNFα production in THP-1 cells; experiment: LPS-stimulated TNFα production inhibition test using human acute monocytic leukemia cell strain THP-1; format: cell-based; details: LPS 2.5 ng/mL, average values
In short: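 THP-1 cells were preincubated with compound for 1 h at 37 °C, then stimulated with LPS (2.5 ng/mL final) for 4 h. Supernatant TNFα was quantified by HTRF (620/665 nm ratio) against a calibration curve. IC50 came from a 4-parameter logistic fit, with no-LPS set as 100% and no-compound as 0% suppression.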

[2] = tested on: collagen-induced arthritis in Lewis rats; experiment: Rat collagen-induced arthritis model (footpad volume); format: in vivo; details: 19 days after first immunization
Description: Eight weeks old female Lewis rats (SLC Inc.) were immunized with bovine type II collagen (CII, Collagen Technical Study Session, product number K41) to induce arthritis. A 1:1 mixed emulsion of the incomplete Freund's adjuvant (Difco, Cat. 263910) and a 3 mg/mL solution of CII was prepared, and 0.7 mL of the emulsion was injected to each rat at seven sites in the tale base part and skins of both fore and hind legs in a volume of 0.1 mL per site. Booster immunization was performed after 7 days by injecting 0.2 mL of the same 1:1 mixed emulsion of the incomplete Freund's adjuvant and CII as that used in the first day at two sites in the tale base part in a volume of 0.1 mL per site. After 12 days, footpad volumes of the both hind feet of the animals were measured by using Plethysmometer (UGO BASILE, Cat. 37140), and the individual animals were divided into groups according to the footpad volume ratio based on that of the normal group and body weight. After they were divided into groups, administration of a test compound or a solvent (vehicle, 0.5% methylcellulose) was started, and it was orally administered twice a day for 7 days (provided that, on the day of grouping, the administration was performed only once after grouping). After the start of the administration, the footpad volumes of both hind feet of the animals were measured every other day or every 3 days by using Plethysmometer, and influence of the test compound was evaluated.
Average value of the footpad volumes was calculated for each individual on each measurement day by using Excel 2010 (Microsoft), and plotted as a graph by using GraphPadPrism 7.03 (GraphPad Software, Inc.). The normal group was defined to be a 100% suppression group, and the solvent administration group was defined to be a 0% suppression group. The suppression ratios based on these controls were calculated for each concentration of the test compound by using Excel 2010 (Microsoft).

Chain of human IRAK-4 (Q9NWZ3 whole entry): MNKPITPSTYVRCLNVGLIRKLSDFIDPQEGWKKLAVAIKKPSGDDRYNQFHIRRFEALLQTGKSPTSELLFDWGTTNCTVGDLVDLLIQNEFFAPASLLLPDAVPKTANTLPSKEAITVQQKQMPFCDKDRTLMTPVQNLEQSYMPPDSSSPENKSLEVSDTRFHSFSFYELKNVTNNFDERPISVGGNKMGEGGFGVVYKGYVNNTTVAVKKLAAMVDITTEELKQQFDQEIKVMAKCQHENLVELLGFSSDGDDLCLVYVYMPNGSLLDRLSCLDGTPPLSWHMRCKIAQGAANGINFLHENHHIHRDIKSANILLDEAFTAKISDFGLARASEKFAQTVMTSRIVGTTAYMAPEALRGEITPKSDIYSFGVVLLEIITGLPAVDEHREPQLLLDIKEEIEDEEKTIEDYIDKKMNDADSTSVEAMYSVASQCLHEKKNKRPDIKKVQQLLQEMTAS

| Compound | IC50 (human IRAK-4) [nM] | IC50 ([1]; Homo sapiens, THP-1, 4 h) [nM] | IC50 ([1]; 4 hours) [nM] | suppression ratio (footpad volume) ([2]; 20 mg/kg orally twice a day) [%] | suppression ratio (footpad volume) ([2]; 60 mg/kg orally twice a day) [%] | suppression ratio (footpad volume) ([2]; 120 mg/kg orally twice a day) [%] |
| --- | --- | --- | --- | --- | --- | --- |
| COc1c(-c2cnc(CO[C@H]3CCC[C@@H]3O)nc2)ccc2nc(NC(=O)C3CC3)sc12 [c-01-01, N-(6-(2-((((1S,2S)-2-Hydroxycyclopentyl)oxy)methyl)pyrimidin-5-yl)-7-methoxybenzo[d]thiazol-2-yl)cyclopropanecarboxamide] | 3.92 | 143 |  | 45 | 65 | 77 |
| C[C@H]1CN(C(=O)C2CCC2)CCN1[C@H]1C[C@@H](C(=O)Nc2cc3cc(-c4cnc(CO[C@H]5CCC[C@@H]5O)nc4)ccn3n2)C1 [e-02-06] | 1.3 | 113 |  |  |  |  |
| CC(C)C(=O)N1CCN([C@H]2C[C@@H](C(=O)Nc3cc4cc(-c5cnc(CO[C@H]6CCC[C@@H]6O)nc5)ccn4n3)C2)[C@@H](C)C1 [e-02-07] | 1.33 | 152 |  |  |  |  |
| CC(=O)N1CCN([C@H]2C[C@@H](C(=O)Nc3cc4cc(-c5cnc(CO[C@H]6CCC[C@@H]6O)nc5)ccn4n3)C2)[C@@H](C)C1 [e-02-08] | 1.32 | 165 |  |  |  |  |
| C[C@H]1CN(C(=O)c2ccccc2)CCN1[C@H]1C[C@@H](C(=O)Nc2cc3cc(-c4cnc(CO[C@H]5CCC[C@@H]5O)nc4)ccn3n2)C1 [e-02-09] | 1.09 | 65 |  |  |  |  |
| C[C@H]1CN(C(=O)C2CC2)CCN1[C@H]1C[C@@H](C(=O)Nc2cc3cc(-c4cnc(CO[C@H]5CCC[C@@H]5O)nc4)ccn3n2)C1 [e-02-10] | 1.09 | 131 |  |  |  |  |
| CC(C)[C@H]1COCCN1[C@H]1C[C@@H](C(=O)Nc2cc3cc(-c4cnc(CO[C@H]5CCC[C@@H]5O)nc4)ccn3n2)C1 [e-02-11] | 1.04 | 95 |  |  |  |  |
| CCCOCc1ncc(-c2ccn3nc(NC(=O)[C@H]4C[C@@H](N5CCN(C(=O)c6ccnc(C)c6)C[C@@H]5C)C4)cc3c2)cn1 [e-02-14] | 1.64 | 139 |  |  |  |  |
| CCCOCc1ncc(-c2ccn3nc(NC(=O)[C@H]4C[C@@H](N5CCN(C(=O)C6CCOC6)C[C@@H]5CC)C4)cc3c2)cn1 (stereo partly drawn) [e-02-15] | 1.81 | 167 |  |  |  |  |
| CCCOCc1ncc(-c2ccn3nc(NC(=O)[C@H]4C[C@@H](N5CCN(C(=O)c6ccc(C(F)(F)F)cn6)C[C@@H]5C)C4)cc3c2)cn1 [e-02-16] | 1.85 | 175 |  |  |  |  |
| CCCOCc1ncc(-c2ccn3nc(NC(=O)[C@H]4C[C@@H](N5CCN(C(=O)c6cc(C)nc(C)c6)C[C@@H]5C)C4)cc3c2)cn1 [e-02-23] | 0.88 | 111 |  |  |  |  |
| Cc1nc(C(=O)N2CCN([C@H]3C[C@@H](C(=O)Nc4cc5cc(-c6cnc(CO[C@H]7CCC[C@@H]7O)nc6)ccn5n4)C3)[C@@H](C)C2)co1 [e-02-24] | 1.27 | 117 |  |  |  |  |
| COc1c(-c2cnc(CO[C@H]3CCC[C@H]3O)nc2)ccn2nc(NC(=O)C3CC3)cc12 [e-04-02] | 1.07 |  | 314 |  |  |  |

Continued by falling IC50 (human IRAK-4), values first:

| IC50 (human IRAK-4) [nM] | IC50 ([1]; Homo sapiens, THP-1, 4 h) [nM] | IC50 ([1]; 4 hours) [nM] | Compound | suppression ratio (footpad volume) ([2]; 20 mg/kg orally twice a day) [%] | suppression ratio (footpad volume) ([2]; 60 mg/kg orally twice a day) [%] | suppression ratio (footpad volume) ([2]; 120 mg/kg orally twice a day) [%] |
| --- | --- | --- | --- | --- | --- | --- |
| 3.74 | 431 |  | COc1c(-c2cnc(CO[C@H]3CCC[C@@H]3O)nc2)ccn2nc(NC(=O)C3CC3)cc12 [e-04-01, N-(5-(2-((((1S,2S)-2-Hydroxycyclopentyl)oxy)methyl)pyrimidin-5-yl)-4-methoxypyrazolo[1,5-a]pyridin-2-yl)cyclopropanecarboxamide] |  |  |  |
| 2.22 | 244 |  | CCCOCc1ncc(-c2ccn3nc(NC(=O)[C@H]4C[C@@H](N5CCN(C(=O)N(C)C)C[C@@H]5C)C4)cc3c2)cn1 [e-02-20] |  |  |  |
| 1.9 |  | 129 | C[C@H]1CN(C(=O)c2cccnc2)CCN1[C@H]1C[C@@H](C(=O)Nc2cc3cc(-c4cnc(CO[C@H]5CCC[C@@H]5O)nc4)ccn3n2)C1 [e-02-12] |  |  |  |
| 1.86 | 80 |  | C[C@H]1CN(C(=O)c2ccon2)CCN1[C@H]1C[C@@H](C(=O)Nc2cc3cc(-c4cnc(CO[C@H]5CCC[C@@H]5O)nc4)ccn3n2)C1 [e-02-26] |  |  |  |
| 1.84 | 200 |  | CCCOCc1ncc(-c2ccn3nc(NC(=O)[C@H]4C[C@@H](N5CCN(C(=O)c6cccc(C)n6)C[C@@H]5C)C4)cc3c2)cn1 [e-02-18] |  |  |  |
| 1.73 | 188 |  | CCCOCc1ncc(-c2ccn3nc(NC(=O)[C@H]4C[C@@H](N5CCN(C(=O)c6coc(C)n6)C[C@@H]5C)C4)cc3c2)cn1 [e-02-21] |  |  |  |
| 1.58 | 53 |  | C[C@H]1CN(C(=O)c2ccc(Cl)cn2)CCN1[C@H]1C[C@@H](C(=O)Nc2cc3cc(-c4cnc(CO[C@H]5CCC[C@@H]5O)nc4)ccn3n2)C1 [e-02-25] |  |  |  |
| 1.38 | 54 |  | Cc1cc(C(=O)N2CCN([C@H]3C[C@@H](C(=O)Nc4cc5cc(-c6cnc(CO[C@H]7CCC[C@@H]7O)nc6)ccn5n4)C3)[C@@H](C)C2)cc(C)n1 [e-02-27] |  |  |  |
| 1.36 | 200 |  | CCCOCc1ncc(-c2ccn3nc(NC(=O)[C@H]4C[C@@H](N5CCN(C(=O)c6ccnc(C(F)(F)F)c6)C[C@@H]5C)C4)cc3c2)cn1 [e-02-17] |  |  |  |
| 1.29 | 106 |  | CCCOCc1ncc(-c2ccn3nc(NC(=O)[C@H]4C[C@@H](N5CCN(C(=O)c6ccc(Cl)cn6)C[C@@H]5C)C4)cc3c2)cn1 [e-02-22] |  |  |  |
| 1.19 | 191 |  | CCCOCc1ncc(-c2ccn3nc(NC(=O)[C@H]4C[C@@H](N5CCN(C(=O)C6CCOCC6)C[C@@H]5CC)C4)cc3c2)cn1 [e-02-19] |  |  |  |
